The assay has as its system Microcystis aeruginosa. As to the kind of experiment: M. aeruginosa cultures, peroxide held constant with Fe-EDTA and citric acid. The assay is classed as cell-based. The settings on record: 1.75 ppm H2O2; for In vivo chl a concentrations (± SD) of M. aeruginosa cultures: initial 3.83 ± 0.05 μg/L. The method, then:
Tests were conducted similar to Example 1 to show the efficacy of compositions made according to the present disclosure against Microcystis aeruginosa. M. aeruginosa is a species of fresh water bacteria that can form harmful algal blooms.
Peroxide concentrations were held constant at either 0.5 ppm, 1.5 ppm, 1.75 ppm, or 2.0 ppm. Fe-EDTA was applied at 0.3%, 0.6%, or 0.9% based on the original dry formulation. Citric acid was added at 1% based on the original dry formulation.
For instance, Tables 5 and 6 below illustrate the differences when peroxide was applied at 1.75 ppm.

As for `OO` [H2O2, hydrogen peroxide], the “In vivo chl a concentrations (± SD) of M. aeruginosa cultures” value is, setting by setting: (day 1) 2.87 ± 0.74 µg/L; (day 2) 1.72 ± 0.66 µg/L; (day 3) 1.31 ± 0.64 µg/L; (day 4) 1.32 ± 0.63 µg/L. The “Cell density of M. aeruginosa cultures (± SD)” value (day 4, initial cell density 2.2E+06 ± 7.2E+04 cells/mL) turned out to be 8.0E+04 cells/mL.

The record behind these values is patent US10244762B1, “Solid aquatic organism control composition and method of use” (priority 2016, dated 2019).
